Legend:
Format in all cases: functional
[1] = species: Mus musculus; experiment: Induction of IFN-gamma production in BALB/c mouse after 6 hrs by ELISA
[2] = species: Mus musculus; experiment: Ratio of induction of IFN-gamma production to induction of IL-4 production in BALB/c mouse after 6 hrs
[3] = species: Mus musculus; experiment: Induction of IL-4 production in BALB/c mouse after 6 hrs by ELISA

| SMILES | Activity [1] | Ratio [2] | Activity [3] |
| --- | --- | --- | --- |
| CCCCCCCCCCCCCCCCCCCCCCCCCC(=O)O[C@H](CCCCCCCCCCCCCC)[C@@H](O)[C@@H](O)CC[C@H]1O[C@H](CO)[C@H](O)[C@H](O)[C@H]1O | 90 pg/mL | 1.37 | 83 pg/mL |
| CCCCCCCCCCCCCCCCCCCCCCCCCC(=O)N[C@@H](CO[C@H]1O[C@H](CO)[C@H](O)[C@H](O)[C@H]1O)[C@H](O)[C@H](O)CCCCCCCCCCCCCC [RGI-7000] | 12145 pg/mL | 8.35 | 1450 pg/mL |
